Results as given in ChEMBL document CHEMBL3885861, “Open TG-GATES”.

Species: Rattus norvegicus
Experiment: Open TG-GATES - Regimen: Daily Repeat
Assay type: toxicity, organism-based, Sprague-Dawley
Parameters: regimen Daily Repeat, gender Male, age 6 weeks
Conditions: in vivo, sc, 0.02 mg/kg, route subcutaneous injection, dose 20 ug/Kg, dose level Middle; for APTT / Bas / Eos / Fbg / Hb / Ht / Lym / MCH / MCHC / MCV / Mono / Neu / PT / Plat / RBC / Ret / WBC: tissue Blood; for KIDNEY_L / KIDNEY_R / KIDNEY_TOTAL: tissue Kidney; for LIVER: tissue Liver; for A/G / ALP / ALT / AST / BUN / CRE / Ca / Cl / DBIL / GLC / IP / K / LDH / Na / PL / RALB / TBIL / TC / TG / TP / gamma-GTP: tissue Plasma

## CC(=O)O.N=C(N)NCCC[C@@H](NC(=O)[C@@H]1CCCN1C(=O)[C@@H]1CSSCCC(=O)N[C@@H](Cc2ccc(O)cc2)C(=O)N[C@@H](Cc2ccccc2)C(=O)N[C@@H](CCC(N)=O)C(=O)N[C@@H](CC(N)=O)C(=O)N1)C(=O)NCC(N)=O [DESMOPRESSIN ACETATE]
72 h, time 3 day
  TERMINAL_BW: 235.6 g
  APTT: 16.2 s
  Bas: 0%
  Eos: 1%
  Fbg: 270.4 mg/dL
  Hb: 13.3 g/dL
  Ht: 40.4%
  Lym: 69.8%
  MCH: 21.6 pg
  MCHC: 32.8%
  MCV: 65.8 fL
  Mono: 8.6%
  Neu: 20.6%
  PT: 11.8 s
  Plat: 123.6 x10_4/uL
  RBC: 613.8 x10_4/ul
  Ret: 8%
  WBC: 99.6 x10_2/uL
  KIDNEY_L: 1.1 g
  KIDNEY_R: 1.1 g
  KIDNEY_TOTAL: 2.2 g
  LIVER: 10.9 g
  A/G: 2
  ALP: 1305 IU/L
  ALT: 39 IU/L
  AST: 72.8 IU/L
  BUN: 16.2 mg/dL
  CRE: 0.4 mg/dL
  Ca: 11.4 mg/dL
  Cl: 103 meq/L
  DBIL: 0.012 mg/dL
  GLC: 193 mg/dL
  IP: 7.9 mg/dL
  K: 5.3 meq/L
  LDH: 205.2 IU/L
  Na: 135 meq/L
  PL: 157.2 mg/dL
  RALB: 3.8 g/dL
  TBIL: 0.04 mg/dL
  TC: 87.6 mg/dL
  TG: 108.8 mg/dL
  TP: 5.7 g/dL
  gamma-GTP: 1 IU/L
[…], time 7 day
  TERMINAL_BW: 276.7 g
  APTT: 16.6 s
  Bas: 0%
  Eos: 1.2%
  Fbg: 263.2 mg/dL
  Hb: 13 g/dL
  Ht: 39.8%
  Lym: 72.2%
  MCH: 20.8 pg
  MCHC: 32.7%
  MCV: 63.6 fL
  Mono: 6.8%
  Neu: 20%
  PT: 12.2 s
  Plat: 125.6 x10_4/uL
  RBC: 627 x10_4/ul
  Ret: 7.1%
  WBC: 114 x10_2/uL
  KIDNEY_L: 1.2 g
  KIDNEY_R: 1.2 g
  KIDNEY_TOTAL: 2.5 g
  LIVER: 12.1 g
  A/G: 2
  ALP: 1103 IU/L
  ALT: 29.6 IU/L
  AST: 69.6 IU/L
  BUN: 15.4 mg/dL
  CRE: 0.4 mg/dL
  Ca: 13.4 mg/dL
  Cl: 100.2 meq/L
  DBIL: 0.01 mg/dL
  GLC: 201 mg/dL
  IP: 7.9 mg/dL
  K: 5.1 meq/L
  LDH: 160.2 IU/L
  Na: 130.8 meq/L
  PL: 138 mg/dL
  RALB: 3.6 g/dL
  TBIL: 0.042 mg/dL
  TC: 75.8 mg/dL
  TG: 95 mg/dL
  TP: 5.5 g/dL
  gamma-GTP: 1 IU/L
[…], time 14 day
  TERMINAL_BW: 325 g
  APTT: 17.5 s
  Bas: 0%
  Eos: 1.2%
  Fbg: 253.6 mg/dL
  Hb: 14.2 g/dL
  Ht: 43.2%
  Lym: 72%
  MCH: 20 pg
  MCHC: 32.8%
  MCV: 60.9 fL
  Mono: 10.6%
  Neu: 16.6%
  PT: 12.2 s
  Plat: 123.2 x10_4/uL
  RBC: 710.2 x10_4/ul
  Ret: 6%
  WBC: 101.6 x10_2/uL
  KIDNEY_L: 1.3 g
  KIDNEY_R: 1.4 g
  KIDNEY_TOTAL: 2.7 g
  LIVER: 13.4 g
  A/G: 1.8
  ALP: 1136 IU/L
  ALT: 29.4 IU/L
  AST: 68.2 IU/L
  BUN: 17.8 mg/dL
  CRE: 0.4 mg/dL
  Ca: 10.6 mg/dL
  Cl: 105.8 meq/L
  DBIL: 0.014 mg/dL
  GLC: 190.6 mg/dL
  IP: 7.3 mg/dL
  K: 5.3 meq/L
  LDH: 133.8 IU/L
  Na: 138.4 meq/L
  PL: 130.6 mg/dL
  RALB: 3.7 g/dL
  TBIL: 0.032 mg/dL
  TC: 65.2 mg/dL
  TG: 109.4 mg/dL
  TP: 5.7 g/dL
  gamma-GTP: 1 IU/L
[…], time 28 day
  TERMINAL_BW: 428.4 g
  APTT: 16.7 s
  Bas: 0%
  Eos: 0.8%
  Fbg: 250 mg/dL
  Hb: 15 g/dL
  Ht: 46.3%
  Lym: 75.8%
  MCH: 19.3 pg
  MCHC: 32.5%
  MCV: 59.4 fL
  Mono: 6%
  Neu: 17.4%
  PT: 11.8 s
  Plat: 112 x10_4/uL
  RBC: 780.2 x10_4/ul
  Ret: 3.5%
  WBC: 128.4 x10_2/uL
  KIDNEY_L: 1.7 g
  KIDNEY_R: 1.7 g
  KIDNEY_TOTAL: 3.4 g
  LIVER: 16.1 g
  A/G: 1.6
  ALP: 834.8 IU/L
  ALT: 27.4 IU/L
  AST: 65 IU/L
  BUN: 18 mg/dL
  CRE: 0.4 mg/dL
  Ca: 9.1 mg/dL
  Cl: 104.2 meq/L
  DBIL: 0.014 mg/dL
  GLC: 190 mg/dL
  IP: 6.7 mg/dL
  K: 4.9 meq/L
  LDH: 143.8 IU/L
  Na: 137.6 meq/L
  PL: 135.2 mg/dL
  RALB: 3.7 g/dL
  TBIL: 0.048 mg/dL
  TC: 69.4 mg/dL
  TG: 107.8 mg/dL
  TP: 6.1 g/dL
  gamma-GTP: 0.4 IU/L
